Common to all, as to assay type: functional, cell-based
Assay [1] has as its system A-431. Nature of the assay: Cytotoxicity against human A431 cells by MTT assay.
Assay [2] concerns SMMC-7721. As to the kind of experiment: Cytotoxicity against human SMMC7721 cells by MTT assay.
Assay [3] concerns SK-OV-3. Nature of the assay: Cytotoxicity against human SKOV3 cells by MTT assay.
The nature of assay [4]: Cytotoxicity against human GLC15 cells by MTT assay.
For assay [5], the system named is MKN-28. Nature of the assay: Cytotoxicity against human MKN28 cells by MTT assay.
The test system of assay [6] is K562. As to the kind of experiment: Cytotoxicity against human K562 cells by MTT assay.
In assay [7] the test system is HL-60. Nature of the assay: Cytotoxicity against human HL60 cells by MTT assay.
Assay [8] relates to HEp-2. Nature of the assay: Cytotoxicity against human Hep2 cells by MTT assay.

This note sets out measurements from ChEMBL document CHEMBL1153355, “Synthesis and cytotoxic activities of novel phenacylimidazolium bromides” (Bioorg Med Chem Lett, 2009).

Each structure is given as a SMILES string.

Take `COc1ccc(CCn2cc[n+](CC(=O)c3ccc4ccccc4c3)c2)cc1OC`: the IC50 is 75 µM in assay [1]; 34.4 µM in assay [2]; 11 µM in assay [3]; 50.2 µM in assay [4]; 85.4 µM in assay [5]; 169 µM in assay [6]. The IC50 stood at 54.2 µM in assay [7] and 77.2 µM in assay [8].

Regarding `COc1ccc(C(=O)C[n+]2ccn(-c3ccc(CC(C)=O)cc3)c2)cc1`, the IC50 in assay [1] came out at 14.5 µM; in assay [2], 91.6 µM; in assay [3] it was 61.1 µM; in assay [4], 26.5 µM; in assay [5] it was 140 µM; in assay [6], 16.7 µM. Also, the values for the IC50 in assay [7] and in assay [8] were 44.4 µM and 84.8 µM, respectively.

As to `O=C(C[n+]1ccn(C23CC4CC(CC(C4)C2)C3)c1)c1ccc2ccccc2c1`, the IC50 in assay [1] was found to be 6.4 µM; in assay [2], 7.7 µM; in assay [3] it was 4 µM; in assay [4] it was 0.8 µM; in assay [5], 12.8 µM; in assay [6], 3.4 µM. In addition, the IC50 turned out to be 4.2 µM in assay [7] and 0.8 µM in assay [8].

As to `COc1ccc(C(=O)C[n+]2ccn(C34CC5CC(CC(C5)C3)C4)c2)cc1`, the IC50 in assay [1] stood at 6.3 µM; in assay [2] it was 27.9 µM; in assay [3], 5.6 µM; in assay [4] it was 59.3 µM; in assay [5], 158 µM; in assay [6], 1.5 µM. Also, the IC50 in assay [7] was determined as 14.7 µM; in assay [8], 7.1 µM.

For the molecule `COc1ccc(C(=O)C[n+]2ccn(C(C)(C)C)c2)cc1`, the IC50 in assay [1] is 66.2 µM; in assay [2] it was above 200 µM; in assay [3], above 200 µM; in assay [4] it was 179 µM; in assay [5], above 200 µM; in assay [6], above 200 µM. Moreover, the IC50 in assay [7] is above 200 µM; in assay [8], 117 µM.

Regarding `Cc1cc(C)c(-n2cc[n+](CC(=O)c3ccccc3)c2)c(C)c1`, the IC50 is 15.6 µM in assay [1]; 16.8 µM in assay [2]; 29.9 µM in assay [3]; above 200 µM in assay [4]; above 200 µM in assay [5]; above 200 µM in assay [6]. Besides, the values for the IC50 in assay [7] and in assay [8] were 31.3 µM and 97.6 µM, respectively.

On to `COc1ccc(C(=O)C[n+]2ccn(-c3c(C)cc(C)cc3C)c2)cc1`, for which the IC50 was 1.7 µM in assay [1]; 4.7 µM in assay [2]; 1.6 µM in assay [3]; 2.2 µM in assay [4]; 5 µM in assay [5]; 2.4 µM in assay [6]. For the same molecule, the IC50 in assay [7] was 3.1 µM; in assay [8], 1.5 µM.

On to `O=C(C[n+]1ccn(C23CC4CC(CC(C4)C2)C3)c1)c1ccccc1`, for which the IC50 in assay [1] is 13.3 µM; in assay [2], 108 µM; in assay [3], 59.3 µM; in assay [4], 108 µM; in assay [5], 198 µM; in assay [6] it was above 200 µM. Further, the IC50 is 39 µM in assay [7] and 93.4 µM in assay [8].

Consider `Cc1cc(C)c(-n2cc[n+](CC(=O)c3ccc(Br)cc3)c2)c(C)c1`, for which the IC50 in assay [1] worked out at 5.4 µM; in assay [2] it was 23.8 µM; in assay [3] it was 33.1 µM; in assay [4] it was 36.9 µM; in assay [5] it was 76.6 µM; in assay [6], 21.4 µM. In addition, the IC50 in assay [7] was 13.4 µM; in assay [8], 22.1 µM.

In the case of `Cc1cc(C)c(-n2cc[n+](CC(=O)c3ccc4ccccc4c3)c2)c(C)c1`, the IC50 worked out at 4.4 µM in assay [1]; 6.8 µM in assay [2]; 2.1 µM in assay [3]; 0.4 µM in assay [4]; 8.7 µM in assay [5]; 2.7 µM in assay [6]. The IC50 was 2.8 µM in assay [7] and 0.7 µM in assay [8].

With `CC(C)c1cccc(C(C)C)c1-n1cc[n+](CC(=O)c2ccc(Br)cc2)c1`, the IC50 in assay [1] turned out to be 4.6 µM; in assay [2], 10.9 µM; in assay [3], 11.3 µM; in assay [4] it was 18.4 µM; in assay [5], 35.3 µM; in assay [6], 2.8 µM. The IC50 in assay [7] is 3.8 µM; in assay [8], 9.2 µM.

As for `Cc1cc(C)c(-n2cc[n+](CC(=O)C(C)(C)C)c2)c(C)c1`, the IC50 was above 200 µM in assay [1]; 154 µM in assay [2]; 192 µM in assay [3]; above 200 µM in assay [4]; above 200 µM in assay [5]; above 200 µM in assay [6]. Further, the IC50 in assay [7] amounted to 113 µM; in assay [8] it was 132 µM.

`COc1ccc(C(=O)C[n+]2ccn(-c3c(C(C)C)cccc3C(C)C)c2)cc1`: the IC50 in assay [1] worked out at 4.2 µM; in assay [2], 9.9 µM; in assay [3], 5 µM; in assay [4], 5.1 µM; in assay [5] it was 10 µM; in assay [6] it was 2.6 µM. Besides, the IC50 in assay [7] was determined as 1.1 µM; in assay [8], 2.8 µM.

Turning to `Cc1cc(C)c(-n2c[n+](CC(=O)c3ccc4ccccc4c3)c(C)c2C)c(C)c1`, the IC50 was determined as 3.9 µM in assay [1]; 9.8 µM in assay [2]; 3.7 µM in assay [3]; 4.3 µM in assay [4]; 1.7 µM in assay [5]; 0.2 µM in assay [6]. In addition, the IC50 in assay [7] was found to be 4.1 µM; in assay [8], 1.9 µM.

With `COc1ccc(C(=O)C[n+]2ccn(CCc3ccc(OC)c(OC)c3)c2)cc1`, the IC50 was 188 µM in assay [1]; 62.3 µM in assay [2]; 37.4 µM in assay [3]; 33.4 µM in assay [4]; above 200 µM in assay [5]; above 200 µM in assay [6]. Moreover, the IC50 in assay [7] was 50.4 µM; in assay [8] it was 62.3 µM.

With `CC(C)c1cccc(C(C)C)c1-n1cc[n+](CC(=O)c2ccc3c(c2)COC3)c1`, the IC50 came to 5.1 µM in assay [1]; 44.3 µM in assay [2]; 25.5 µM in assay [3]; 36.9 µM in assay [4]; 59.6 µM in assay [5]; 12.1 µM in assay [6]. Also, the IC50 in assay [7] was 4.5 µM; in assay [8], 11.6 µM.

With `CC(C)(C)n1cc[n+](CC(=O)c2ccccc2)c1`, the IC50 in assay [1], in assay [2], in assay [3], in assay [4], in assay [5] and in assay [6] was above 200 µM each time. The IC50 in assay [7] and in assay [8] was above 200 µM in each case.

For the molecule `COc1ccc(C(=O)C[n+]2ccn(-c3ccc([N+](=O)[O-])cc3)c2)cc1`, the IC50 in assay [1] is 75.5 µM; in assay [2], above 200 µM; in assay [3], 26.6 µM; in assay [4], 97.6 µM; in assay [5], 113 µM; in assay [6], 113 µM. In addition, the IC50 in assay [7] worked out at 8.6 µM; in assay [8] it was 41.6 µM.

Consider `CC(C)c1cccc(C(C)C)c1-n1cc[n+](CC(=O)c2ccc3ccccc3c2)c1`, for which the IC50 in assay [1] turned out to be 14.7 µM; in assay [2] it was 10.5 µM; in assay [3] it was 1.9 µM; in assay [4], 6.2 µM; in assay [5], 9.6 µM; in assay [6], 0.4 µM. Also, the IC50 was 1.5 µM in assay [7] and 3.5 µM in assay [8].

For `Cc1cc(C)c(-n2cc[n+](CC(=O)c3ccc4c(c3)COC4)c2)c(C)c1`, the IC50 in assay [1] amounted to 18.2 µM; in assay [2] it was 33.5 µM; in assay [3] it was 31.5 µM; in assay [4], 23.5 µM; in assay [5], 85.3 µM; in assay [6], 70.1 µM. Further, the IC50 in assay [7] came to 6.1 µM; in assay [8], 12.3 µM.

Consider `CC(=O)Cc1ccc(-n2cc[n+](CC(=O)c3ccccc3)c2)cc1`, for which the IC50 was 7 µM in assay [1]; 53.4 µM in assay [2]; above 200 µM in assay [3]; 53.5 µM in assay [4]; above 200 µM in assay [5]; above 200 µM in assay [6]. The IC50 was 25.8 µM in assay [7] and above 200 µM in assay [8].
